For six compounds, IC50 results are on record in patent US20230219890A1, “BICYCLIC COMPOUNDS AND USE THEREOF” (Betta Pharmaceuticals Co.,Ltd, priority 2020, published 2023).

The test system of assay [1] is VEGFA (786-O cells). Kind of assay: VEGFA ELISA Assay (IC50). To be noted: 24 hours incubation, VEGFA in culture supernatant by ELISA. It counts as cell-based. The method, then:
786-O cells in exponential growth phase were seeded in 96-well plate, the cell concentration was 65,000 cells per milliliter of culture medium, 180 ul per well. Compounds were serial diluted to the indicated concentration, and 20 ul compound solutions of different concentrations were added to the corresponding cell wells. The final compound concentrations were as follows (nM): 1.5, 4.6, 13.7, 41.2, 123.5, 370.4, 1111.1, 3333.3, 10000. After 24 hours of incubation, the cell culture supernatant was taken, and the VEGFA concentration was determined using an ELISA kit (purchased from abcam). Finally, the reaction was terminated, and the light absorbance value of each well was measured using a microplate reader at a wavelength of […], and IC50 was calculated by GraphPad Prism. Cell Titer-Glo reagent was used to measure cell viability.
In general terms: An ELISA detects its analyte on a solid surface through an enzyme-linked reagent.

In assay [2] the test system is HIF2α reporter cells (786-O-HIF2α-Luc cells). Kind of assay: Luciferase Assay (HIF2α reporter cells). It counts as cell-based. To be noted: 18-20 h, Steady-Glo luminescence. The method, then:
Luciferase LUC gene was transfected into 786-O cells (purchased from ATCC) using Lipofectamine 3000 Transfection Reagent (purchased from Invitrogen) to construct HIF2α reporter cells (786-O-HIF2α-Luc cells). Experiments were performed when 786-O-HIF2α-Luc cells were in logarithmic growth phase, culture medium (RPMI MEDIUM 1640, purchased from Invitrogen) was abandoned, the cells were rinsed with PBS three times; trypsin (TrypLE, purchased from invitrogen) was added to digest cells, the digestion was terminated by washing the cells with culture medium, 10% fetal bovine serum, 1% penicillin and streptomycin. The cells were collected by centrifugation, rinsed twice with PBS to remove the phenol red in the medium, and then resuspended the cells to an appropriate concentration, and detected the cell density and viability, and made sure the cell viability is above 90% before it can be used for experiments.
The gradient concentration compound was transferred into 384-well plate, 25 nl/well using Echo 550 (non-contact sonic pipetting system, purchased from Labcyte); the cells were seeded in 384-well plate, 4500 cells/well, with 25 μl of culture medium, to make the final concentrations as follows: 10000, 3333, 1111, 370, 123, 41.1, 13.7, 4.6, 1.5, 0.5 nM. Cells were incubated at 37° C., 5% CO2 for 18-20 h; Steady-Glo™ Luciferase Assay System (purchased from Promega) was added to 384 well-plate, 25 μl/well; the luminescence value was detected with Envision. The % inhibition rate was calculated according to the RLU (Record Luminescence) signal value of each well, and then the IC50 of the corresponding compound was calculated by Graphpad 8.0.

Where [3] appears, read: Homo sapiens, 786-0, 24 h, numeric values.

One may read the IC50 as the concentration that inhibits the measured activity by half. Low readings indicate greater potency in that assay, high ones weaker potency in that assay. As for `OC1c2c(C(F)(F)F)cn(-c3ccc(F)c(C(F)(F)F)c3)c2CCC1(F)F` (stereo not drawn) [Example 156, 5,5-difluoro-1-(4-fluoro-3-(trifluoromethyl)phenyl)-3-(trifluoromethy)-4,5,6,7-tetrahydro-1H-indol-4-ol], the values for the IC50 in assay [1] (setting [3]) and in assay [2] (numeric values) were 15.6 nM and 70.5 nM, respectively.
`N#Cc1ccc(-n2cc(C(F)(F)F)c3c2CCC(F)(F)[C@H]3O)cc1C#N` [Example 167, (S)-4-(5,5-difluoro-4-hydroxy-3-(trifluoromethyl)-4,5,6,7-tetrahydro-1H-indol-1-yl)phthalonitrile]: the IC50 in assay [1] (Homo sapiens, 786-0, 24 h, class symbols) was ≤ 500 nM; in assay [2] (numeric values) it was 69.9 nM.
As for `OC1c2c(C(F)(F)F)cn(-c3ccc(F)c(C(F)F)c3)c2CCC1(F)F` (stereo not drawn) [Example 168, 1-(3-(difluoromethyl)-4-fluorophenyl)-5,5-difluoro-3-(trifluoromethyl)-4,5,6,7-tetrahydro-1H-indol-4-ol], the IC50 came out at 8.4 nM in assay [1] (setting [3]) and 30.5 nM in assay [2] (numeric values).
Taken in the same sequence, the figures for `O[C@H]1c2c(C(F)(F)F)cn(-c3ccc(F)c(C(F)F)c3)c2CCC1(F)F` [Example 173, (S)-1-(3-(difluoromethyl)-4-fluorophenyl)-5,5-difluoro-3-(trifluoromethyl)-4,5,6,7-tetrahydro-1H-indol-4-ol] were 17.8 nM and 15.9 nM.
The like results for `[2H][C@]1(O)c2c(C(F)(F)F)cn(-c3ccc(F)c(C#N)c3)c2CCC1(F)F` [Example 200, (S)-5-(5,5-difluoro-4-hydroxyl-3-(trifluoromethyl)-4,5,6,7-tetrahydro-1H-indol-1-yl-4-d)-2-fluorobenzonitrile] were, in that order, 5.6 nM and 33.5 nM.
For “(4S,5S)-1-(3-(difluoromethyl)-4-fluorophenyl)-5-fluoro-3-(trifluoromethyl)-4,5,6,7-tetrahydro-1H-indol-4-ol and (4R,5R)-1-(3-(difluoromethyl)-4-fluorophenyl)-5-fluoro-3-(trifluoromethyl)-4,5,6,7-tetrahydro-1H-indol-4-ol [Example 103]”, the values for the IC50 in assay [1] (numeric values) and in assay [2] (class symbols) were 44.1 nM and ≤ 500 nM, respectively.
